# The supplement of paper PMC11061612
# Tests used:
# Test in all cases: Bliss excess, mean over the matrix (fraction); higher = more synergy
# [1] = tested on: NCI-H196 (Small Cell Lung Carcinoma)
# In short: (§1)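 Cell lines in DMEM/F12 or RPMI with 10% FBS were plated in 1536-well plates, held 24 hours at 37°C, 5% CO2, then given two-drug dose matrices for 72 hours (DMSO typically 0.2%). Viability was read by CellTiter-Glo 2.0 luminescence and scaled as inhibition from 0 (vehicle wells) to 1 (blank wells). Combination Emax is the second-highest inhibition in the matrix; Bliss excess is observed combination effect minus expected EA + EB − EA·EB, EA and EB being single-agent effects.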
# HuO-3N1 (Osteosarcoma) = tested on: HuO-3N1 (Osteosarcoma)
# In short: as §1
# [2] = tested on: AN3-CA (Endometrial Carcinoma)
# In short: as §1
# [3] = tested on: COLO-684 (Endometrial Carcinoma)
# In short: as §1
# [4] = tested on: OCI-AML5 (Acute Myeloid Leukemia)
# In short: as §1
# [5] = tested on: SNU-175 (Colorectal Carcinoma)
# In short: as §1
# [6] = tested on: PANC-02-03 (Pancreatic Carcinoma)
# In short: as §1
# [7] = tested on: NCI-H1623 (Lung Adenocarcinoma)
# In short: as §1
# 786-0 (Kidney Carcinoma) = tested on: 786-0 (Kidney Carcinoma)
# In short: as §1
# [8] = tested on: EB-3 (Burkitt's Lymphoma)
# In short: as §1
# [9] = tested on: NCI-H1155 (Non-Small Cell Lung Carcinoma)
# In short: as §1
# [10] = tested on: NCI-H1755 (Lung Adenocarcinoma)
# In short: as §1
# [11] = tested on: Caov-3 (Ovarian Carcinoma)
# In short: as §1
# [12] = tested on: AsPC-1 (Pancreatic Carcinoma)
# In short: as §1
# CHL-1 (Melanoma) = tested on: CHL-1 (Melanoma)
# In short: as §1
# [13] = tested on: HSC-3 (Oral Cavity Carcinoma)
# In short: as §1
# KYM-1 (Rhabdomyosarcoma) = tested on: KYM-1 (Rhabdomyosarcoma)
# In short: as §1
# [14] = tested on: PC-14 (Lung Adenocarcinoma)
# In short: as §1
# [15] = tested on: OV-90 (Ovarian Carcinoma)
# In short: as §1
# [16] = tested on: FLO-1 (Esophageal Adenocarcinoma)
# In short: as §1
Structure (SMILES),Bliss excess [1],Bliss excess (HuO-3N1 (Osteosarcoma)),Bliss excess [2],Bliss excess [3],Bliss excess [4],Bliss excess [5],Bliss excess [6],Bliss excess [7],Bliss excess (786-0 (Kidney Carcinoma)),Bliss excess [8],Bliss excess [9],Bliss excess [10],Bliss excess [11],Bliss excess [12],Bliss excess (CHL-1 (Melanoma)),Bliss excess [13],Bliss excess (KYM-1 (Rhabdomyosarcoma)),Bliss excess [14],Bliss excess [15],Bliss excess [16]
"Cc1cc2ncnn2cc1Nc1ncc2c(n1)n(C1CCOCC1)c(=O)n2C [AZD7648] + C=CCn1c(=O)c2cnc(Nc3ccc(N4CCN(C)CC4)cc3)nc2n1-c1cccc(C(C)(C)O)n1 [AZD1775] (first compound max 10 µM, partner max 1 µM)",-0.0249,-0.0205,-0.0091,-0.0713,0.0086,-0.0043,0.0306,0.0376,0.0502,-0.102,0.033,0.0084,-0.0869,0.0558,0.014,-0.0488,0.0302,-0.025,-0.0163,-0.023
"Cc1cc2ncnn2cc1Nc1ncc2c(n1)n(C1CCOCC1)c(=O)n2C [AZD7648] + CCN(CCO)CCCOc1ccc2c(Nc3cc(CC(=O)Nc4cccc(F)c4)[nH]n3)ncnc2c1 [AZD2811] (first compound max 10 µM, 7x7, partner max 1 µM)",-0.0181,-0.0184,0.0113,0.0234,-0.0377,0.0136,0.0163,-0.0311,0.0259,-0.0338,0.0796,0.0038,-0.0523,-0.0312,0.0203,0.0012,0.0571,0.0257,-0.017,0.0161
"Cc1cc2ncnn2cc1Nc1ncc2c(n1)n(C1CCOCC1)c(=O)n2C [AZD7648] + CN(C)CCCOc1ccc(-c2ccc3ncc4c(c3c2)n(C2CCOCC2)c(=O)n4C)cn1 [AZD0156] (first compound max 10 µM, 7x7, partner max 1 µM)",-0.0173,-0.0416,-0.0224,-0.0324,0.0276,-0.0021,0.0002,-0.0209,0.0224,-0.0867,0.0397,0.0118,-0.0085,-0.0291,0.0169,0.0174,0.0278,0.0186,-0.0374,-0.0665
"Cc1cc2ncnn2cc1Nc1ncc2c(n1)n(C1CCOCC1)c(=O)n2C [AZD7648] + C[C@@H]1COCCN1C2=NC(=NC(=C2)C3(CC3)[S@](=N)(=O)C)C4=C5C=CNC5=NC=C4 [AZD6738] (first compound max 10 µM, 7x7, partner max 10 µM)",0.0126,0.0042,0.0515,-0.0527,-0.0209,-0.0374,0.0561,0.0359,0,-0.0278,0.0038,0.0513,0.0433,0.0133,0.0093,-0.0299,0.0015,0.0031,-0.0156,-0.0191
"Cc1cc2ncnn2cc1Nc1ncc2c(n1)n(C1CCOCC1)c(=O)n2C [AZD7648] + O=C(c1cc(Cc2n[nH]c(=O)c3ccccc23)ccc1F)N1CCN(C(=O)C2CC2)CC1 [Olaparib] (first compound max 10 µM, 7x7, partner max 10 µM)",-0.0435,-0.031,-0.0738,-0.0054,0.0077,-0.025,-0.0411,-0.0486,-0.0162,-0.0401,-0.0235,-0.0464,-0.0336,-0.0567,-0.0266,-0.0102,-0.0078,-0.0245,-0.0419,-0.0259
"COc1cccc2c1C(=O)c1c(O)c3c(c(O)c1C2=O)C[C@@](O)(C(=O)CO)C[C@@H]3O[C@H]1C[C@H](N)[C@H](O)[C@H](C)O1 [Doxorubicin] + Cc1cc2ncnn2cc1Nc1ncc2c(n1)n(C1CCOCC1)c(=O)n2C [AZD7648] (first compound max 1 µM, 7x7, partner max 10 µM)",-0.0383,-0.0523,-0.0534,-0.003,0.174,0.0265,0.0001,0.0258,0.082,-0.0391,0.138,0.104,0.024,-0.033,0.002,0.0907,0.0837,0.0728,0.0011,0.027
"COc1cccc(OCCCN)c1-c1cc(Nc2cnc(C#N)cn2)n[nH]1 [Prexasertib] + C=CCn1c(=O)c2cnc(Nc3ccc(N4CCN(C)CC4)cc3)nc2n1-c1cccc(C(C)(C)O)n1 [AZD1775] (first compound max 1 µM, partner max 1 µM)",-0.0317,0.122,0.0766,-0.0042,0.063,0.0595,0.0504,0.0519,0.0707,0.0312,0.0998,-0.0104,-0.0546,-0.0189,0.0485,0.121,0.0713,0.0069,-0.0477,0.0488
"COc1cccc(OCCCN)c1-c1cc(Nc2cnc(C#N)cn2)n[nH]1 [Prexasertib] + CCc1c2c(nc3ccc(O)cc13)-c1cc3c(c(=O)n1C2)COC(=O)[C@]3(O)CC [SN-38] (first compound max 1 µM, 7x7, partner max 0.3 µM)",0.0391,-0.0105,0.0972,0.0379,-0.0197,-0.0298,0.0098,-0.0364,-0.0368,-0.0404,-0.0161,-0.0057,-0.0539,-0.0333,0.0254,-0.0455,-0.0634,-0.0169,-0.0591,0.0153
"COc1cccc(OCCCN)c1-c1cc(Nc2cnc(C#N)cn2)n[nH]1 [Prexasertib] + CN(C)CCCOc1ccc(-c2ccc3ncc4c(c3c2)n(C2CCOCC2)c(=O)n4C)cn1 [AZD0156] (first compound max 1 µM, 7x7, partner max 1 µM)",-0.0547,0.0092,-0.0442,-0.0172,0.0781,0.0462,-0.0009,-0.0206,-0.0576,0.0498,-0.0753,-0.011,-0.0134,0.0303,0.0059,-0.0322,0.0147,-0.0284,-0.035,-0.056
"COc1cccc(OCCCN)c1-c1cc(Nc2cnc(C#N)cn2)n[nH]1 [Prexasertib] + C[C@@H]1COCCN1C2=NC(=NC(=C2)C3(CC3)[S@](=N)(=O)C)C4=C5C=CNC5=NC=C4 [AZD6738] (first compound max 1 µM, 7x7, partner max 10 µM)",-0.049,0.0204,-0.0308,-0.0733,-0.0205,0.0641,0.0434,-0.0745,-0.0219,-0.0598,-0.0438,-0.0534,-0.0647,0.0292,0.0139,0.0351,-0.0107,-0.047,-0.0275,-0.0233
"COc1cccc(OCCCN)c1-c1cc(Nc2cnc(C#N)cn2)n[nH]1 [Prexasertib] + Cc1cc2ncnn2cc1Nc1ncc2c(n1)n(C1CCOCC1)c(=O)n2C [AZD7648] (first compound max 1 µM, 7x7, partner max 10 µM)",-0.0361,-0.0498,-0.0393,-0.0547,0.0718,0.0311,-0.0019,-0.0588,-0.0276,-0.0106,0.0039,-0.0249,-0.0376,-0.0242,-0.0122,-0.0096,-0.0078,-0.037,0.0252,-0.0817
"COc1cccc(OCCCN)c1-c1cc(Nc2cnc(C#N)cn2)n[nH]1 [Prexasertib] + O=C(c1cc(Cc2n[nH]c(=O)c3ccccc23)ccc1F)N1CCN(C(=O)C2CC2)CC1 [Olaparib] (first compound max 1 µM, 7x7, partner max 10 µM)",-0.0641,-0.0658,-0.0523,-0.128,-0.045,0.0762,-0.0932,-0.0777,-0.0427,-0.195,-0.0309,-0.0582,-0.0138,-0.0956,-0.051,-0.0093,-0.0609,-0.0478,-0.0191,-0.0721
"COc1cc2c(cc1OCCCCCOc1cc3c(cc1OC)C(=O)N1C=C(C)C[C@H]1C=N3)N=C[C@@H]1CC(C)=CN1C2=O [SG3199] + O=C(c1cc(Cc2n[nH]c(=O)c3ccccc23)ccc1F)N1CCN(C(=O)C2CC2)CC1 [Olaparib] (first compound max 0.001 µM, 7x7, partner max 10 µM)",-0.0387,-0.0446,-0.0292,-0.0286,0.0232,-0.0317,-0.0487,-0.0342,-0.0223,-0.0509,0.0119,-0.0207,-0.0475,-0.0535,-0.0227,-0.0067,-0.0201,-0.0274,-0.0422,-0.0486
"CCc1c2c(nc3ccc(O)cc13)-c1cc3c(c(=O)n1C2)COC(=O)[C@]3(O)CC [SN-38] + CN(C)CCCOc1ccc(-c2ccc3ncc4c(c3c2)n(C2CCOCC2)c(=O)n4C)cn1 [AZD0156] (first compound max 0.3 µM, 7x7, partner max 1 µM)",-0.049,-0.0592,-0.0446,-0.0265,-0.0231,0.0229,-0.007,-0.0496,0.0032,-0.0659,0.0268,0.0829,0.0175,-0.029,0.0336,-0.0063,0.0465,0.0407,-0.012,0.0218
"CC(=O)Nc1cccc(-n2c(=O)n(C3CC3)c(=O)c3c(Nc4ccc(I)cc4F)n(C)c(=O)c(C)c32)c1 [Trametinib] + Cc1nc(-c2cn3c(n2)-c2ccc(-c4cnn(C(C)(C)C(N)=O)c4)cc2OCC3)n(C(C)C)n1 [Taselisib] (first compound max 1 µM, 7x7, partner max 10 µM)",0.0039,0.0402,0.0575,-0.0034,0.194,0.0779,0.179,0.144,-0.0229,0.0489,0.0426,0.115,0.0289,0.0654,0.171,0.15,0.0424,0.163,0.0922,0.047
